Reference: patent publication US20090136470A1, “REGULATORY T CELLS AND METHODS OF MAKING AND USING SAME” (priority 2007, published 2009)

Experiments:
[1] = test system: RORγt; test: RORγt mRNA by real-time PCR in CD4 T cells under Th-17 culture conditions; assay type: cell-based, mouse; conditions: α-CD3ε and α-CD28, IL-17 inducing cytokines
Source text: For analysis of RORγ-T mRNA expression, naïve CD4^+T cells were purified essentially as described by Ivanov et al. [Ivanov, II et al., Cell 126, 1121 (2006)]. In brief, CD4+ T cells were purified from spleens of C57BL/6 mice using anti-CD4 magnetic microbeads (Miltenyi Biotec) and MACS columns. CD4^+T cells were stained with anti-CD25-PE, anti-CD4-PECy5, anti-CD62L-FITC, and anti-CD44-APC. The CD4^+CD25^− CD44^lowCD62L^+ T cells population was sorted by flow cytometry using a FACS-DIVA cell sorter (>99% purity). Some studies were also performed using CD4^+CD45RB^high T cell population, sorted as described above.
At different time-points, cells were harvested, washed with sterile PBS and resuspended in TRIZol (Invitrogen, USA). Samples were then frozen and kept at −80° C. for later utilization. For RNA isolation, the whole tissue was homogenized and RNA was separated from DNA and proteins by precipitation with chloroform and extraction with isopropanol. The cDNA was synthesized from the total RNA using the Superscript II system (Invitrogen, USA) following the instructions provided by the manufacturer. […] Data were collected and analyzed on an iCycler Bio-Rad (Hercules, USA).

[2] = test system: naïve CD4^+T cells from B7.1/2^−/− IL-2^+/+ or B7.1/2^−/− IL-2^−/− mice; test: RA-mediated effects on T cell differentiation without IL-2 (anti-IL-2 or IL-2−/− T cells) or with exogenous IL-2; assay type: cell-based, mouse
Experimental: (§1) The culture medium used for dendritic cell-T cell cultures was Iscove's modified Dulbecco medium (IMDM) (Gibco, USA) supplemented with 10% heat-inactivated FCS, 2 mM L-glutamine, 100 U/ml penicillin, 100 μg/ml streptomycin, and 5 mM β-mercaptoethanol (all Sigma, USA). […] For dendritic cell-T cell cultures, 2×10^4 dendritic cells and 1×10^5 T cells were cultured in a volume of 200 μl (96-well plates). For irradiated APC-T cell cultures, 5×10^5 APCs and 1×10^5 T cells were cultured in a volume of 200 μl in 96-well plates (2×10^6 APCs and 0.5×10^6 T cells per well in 48-well plates). […] For the study shown in FIG. 4A, after sorting of naive CD4^+ cells (CD25^−CD44^lowCD62L^+), cells were washed twice in PBS+0.1% BSA, counted and labeled with 2 μM of CFSE (Carboxyfluorescein diacetate, succinimidyl ester) (Molecular Probes, USA) at a concentration of 5−10×10^6 cells per ml in PBS-0.1% BSA.
(§2) For Foxp3 staining, no stimulation with PMA/Ionomycin was performed, with the exceptions of FIGS. 8B and 9A.

[3] = test system: CD8^+T cells from OT-I TCR transgenic mice
Experimental: as §1, §2

[4] = test system: CD4^+CD25^−T cells; test: TGF-β-dependent Foxp3 induction (Treg differentiation) in CD4 T cells with dendritic cells or APCs; assay type: cell-based, mouse
Experimental: (§3) For CD4^+CD25^− T cell isolation, spleens were removed, teased into cell-single suspensions and filtered through a 70 μm cell strainer (Fisher Scientific, USA). CD4^+CD25^−T cells were isolated by negative selection after incubation with a mix of specific biotin-conjugated mAbs (anti-CD8, CD11b, CD11ε, CD25, CD45R (B220), NK1.1, and TER119) at 1/200 dilution, and anti-biotin magnetic microbeads (25-40 μl per spleen) (Miltenyi Biotec, USA).
(§4) For dendritic cells isolation, spleen and MLN were chopped and digested by collagenase type D (Roche, USA) for 30 min at room temperature. Digested tissues were treated with 5 mM of EDTA for additional 5 min and mashed through a 70 μm cell strainer. Subsequently, CD11c^+ cells were enriched by positive selection using anti-CD11c microbeads according to the manufacturer's protocol (Miltenyi Biotec, USA). Enriched populations were stained with CD45-APC, CD 11c-PE, I-A^b-FITC and TCR β and sorted for TCRβ^−CD45^+CD11c^+I-Ab^+ by flow cytometry using a FACS-DIVA cell sorter (USA).
as §1
(§5) For Foxp3 staining, no stimulation with PMA/Ionomycin was performed, with the exceptions of FIGS. 8B and 9A. […]

[5] = test system: CD4^+CD25^− spleen T cells; test: Th-17 differentiation of CD4 T cells stimulated with dendritic cells or spleen APCs plus TGF-β and IL-6 (intracellular IL-17 staining, IL-17 ELISA); assay type: cell-based, mouse
Experimental: as §3, §4, §1
To block non-specific staining, the 2.4G2 anti-CD16/32 antibody was added.

[6] = test system: naïve CD4^+T cells; test: Re-stimulation (secondary cultures) of in vitro differentiated CD4 T cells: Foxp3 and IL-17 staining; assay type: cell-based, mouse; conditions: cells first stimulated with TGF-β and IL-6, rested
Experimental: as §1
(§6) To block non-specific staining, the 2.4G2 anti-CD16/32 antibody was added. […] For intracellular cytokine staining, cells obtained from in vitro cultures or isolated IELs were incubated for 4-5 hours with 50 ng/ml PMA, 750 ng/ml Ionomycin (both Sigma, USA) and 10 μg/ml Brefeldin A (Invitrogen, USA) in a tissue culture incubator at 37° C.
as §5

[7] = test system: CD8^+ spleen T cells; test: IL-17^+ cell generation from CD8^+ T cells activated with TGF-β and IL-6
[8] = test system: Polyclonal CD4^+CD25^− spleen T cells; test: APC-free Th-17 generation (anti-CD3/CD28 beads, IL-17 cond.: TGF-β, IL-6, IL-1β, TNF-α); assay type: cell-based, mouse
Experimental: as §1, §6

CC1=C(/C=C/C(C)=C/C=C/C(C)=C/C(=O)O)C(C)(C)CCC1 [RA, All-trans retinoic acid]
RORγt mRNA expression [1]: greatly reduced its expression | requirement for exogenously added IL-2 [2]: did not require exogenously added IL-2 | CD103 phenotype of the Foxp3^+Tregs generated ([2]; TGF-β-dependent Foxp3 differentiation): mostly CD103^+Tregs | dependence of Foxp3^+ enhancing and Th-17 inhibitory effects on IL-2 ([2]; anti-IL-2 (20 μg/ml) or IL-2−/− T cells): for the most part dependent on IL-2 | IL-17 cytokine secretion (ELISA) ([2]; culture supernatants): measurably decreased | CD103 expression on CD8 cells ([3]; TGF-β and RA): synergized to upregulate CD103 expression | CD25 expression of CD8 T cells upon in vitro activation ([3]; in the presence of TGF-β and RA): down-regulate CD25 expression | TGF-β-dependent Foxp3 induction by MLN dendritic cells ([4]; OT-II CD4 cells, OVAp, TGF-β1, LE135 1 μM, RA 100 nM): enhanced | TGF-β-dependent Foxp3 induction under low amounts of TGF-β ([4]; TGF-β 0.5 ng/ml, TCR-transgenic CD4 cells): still enhances | antagonistic effect on IL-6 (Foxp3 versus IL-17) ([5]; TGF-β 5 ng/ml, varied concentrations of IL-6 and RA): dose dependent | Foxp3 / Th-17 differentiation of CD4 T cells under conditions that promote Th-17 differentiation ([5]; TNF-α, IL-1-β, TGF-β and IL-6 plus RA): converted to Foxp3^+ cells with a decrease in Th-17 differentiation | Th-17 differentiation by spleen dendritic cells ([5]; added to cultures with TGF-β and IL-6, 100 nM): inhibited the Th-17 differentiation by spleen dendritic cells | committed Th-17 cells in secondary cultures [6]: also suppressed committed Th-17 cells | generation of IL-17^+ T cells from cytotoxic CD8^+ T lymphocytes ([7]; WT or OT-I TCR^+ CD8^+ T cells, TGF-β and IL-6): again able to inhibit this | Foxp3 / Th-17 differentiation of CD8 T cells under conditions that promote Th-17 differentiation ([7]; cultured with RA): converted to Foxp3^+ cells with a decrease in Th-17 differentiation | generation of IL-17^+ T cells under APC-free conditions [8]: also inhibited the generation of IL-17^+T cells
